From paper PMC5190074, “BET inhibition as a new strategy for the treatment of gastric cancer” (Oncotarget, 2016)

Assays:
[1] = biological target: T1, BRD4(1), first bromodomain of BRD4 (Homo sapiens, UniProt O60885); assay: ITC; co-crystal structure at […] Å; type: binding
T1 construct: first bromodomain; BRD4_HUMAN O60884-1 fragment 44-168 (crystallography)

BAZ2A = biological target: T2, BAZ2A (Homo sapiens, UniProt Q9UIF9); assay: biochemical; design: thermal shift assay (real-time PCR machine), melting temperature shift of recombinant bromodomains at 2 uM protein
T2 construct: bromodomain
Description: (§1) The recombinant bromodomains at 2 μM were mixed with 10 μM inhibitors. The assays and data evaluation for melting temperatures were performed using a Real-Time PCR Mx3005p machine (Stratagene) and the protocols previously described. Experiments profiling the final compound (PNZ5) were performed in quadruplicates. […] Since its discovery in our own labs, similar inhibitors have also been disclosed by researchers at Boehringer Ingelheim [reference: patent, WO 2014/154760 [31]]. The inhibitor contains two possible acetyl-lysine mimetic moieties. In order to obtain molecular insights on the interaction of the developed inhibitor, the crystal structure of the first bromodomain of BRD4 in complex with PNZ5 was solved at 1.85 Å (Figure 2C and Supplementary Table 4, 5FBX.pdb). The inhibitor, coordinating residues and water molecules were well defined by the electron density. The dimethylisoxazole moiety mimicked the acetyl lysine side chain and formed two canonical hydrogen-bond interactions with Asn140 and water mediated hydrogen-bond with Tyr 97 (Figure 2C). The common network of waters within the binding site was also conserved in the BRD4(1)-PNZ5 complex. The compound was further stabilized by lipophilic interactions with residues forming the binding site Leu92, Leu94, Ile146. The [compound left out] substituent was well accommodated next to the WPF shelf, as well as the N1-methyl substituent that formed hydrophobic interactions with Trp81. The carbonyl on the isoindolinone established a water-mediated hydrogen bond with Lys91.

BRD2(1) = biological target: T3, BRD2(1) (Homo sapiens, UniProt P25440); assay: biochemical; design: thermal shift assay (real-time PCR machine), melting temperature shift of recombinant bromodomains at 2 uM protein
T3 construct: bromodomain 1
Description: as §1

BRD3(1) = biological target: T4, BRD3(1) (Homo sapiens, UniProt Q15059); assay: biochemical; design: thermal shift assay (real-time PCR machine), melting temperature shift of recombinant bromodomains at 2 uM protein
T4 construct: bromodomain 1
Description: as §1

BRD3(2) = biological target: T5, BRD3(2) (Homo sapiens, UniProt Q15059); assay: biochemical; design: thermal shift assay (real-time PCR machine), melting temperature shift of recombinant bromodomains at 2 uM protein
T5 construct: bromodomain 2
Description: as §1

BRD4(2) = biological target: T6, BRD4(2) (Homo sapiens, UniProt O60885); assay: biochemical; design: thermal shift assay (real-time PCR machine), melting temperature shift of recombinant bromodomains at 2 uM protein
T6 construct: bromodomain 2
Description: as §1

BRPF1B = biological target: T7, BRPF1B (Homo sapiens, UniProt P55201); assay: biochemical; design: thermal shift assay (real-time PCR machine), melting temperature shift of recombinant bromodomains at 2 uM protein
T7 construct: gene BRPF1; isoform B bromodomain
Description: as §1

FALZ = biological target: T8, FALZ (Homo sapiens, UniProt Q12830); assay: biochemical; design: thermal shift assay (real-time PCR machine), melting temperature shift of recombinant bromodomains at 2 uM protein
T8 construct: gene BPTF; bromodomain
Description: as §1

MLL = biological target: T9, MLL (Homo sapiens, UniProt Q03164); assay: biochemical; design: thermal shift assay (real-time PCR machine), melting temperature shift of recombinant bromodomains at 2 uM protein
T9 construct: gene KMT2A; bromodomain
T9 sequence (Q03164 whole entry): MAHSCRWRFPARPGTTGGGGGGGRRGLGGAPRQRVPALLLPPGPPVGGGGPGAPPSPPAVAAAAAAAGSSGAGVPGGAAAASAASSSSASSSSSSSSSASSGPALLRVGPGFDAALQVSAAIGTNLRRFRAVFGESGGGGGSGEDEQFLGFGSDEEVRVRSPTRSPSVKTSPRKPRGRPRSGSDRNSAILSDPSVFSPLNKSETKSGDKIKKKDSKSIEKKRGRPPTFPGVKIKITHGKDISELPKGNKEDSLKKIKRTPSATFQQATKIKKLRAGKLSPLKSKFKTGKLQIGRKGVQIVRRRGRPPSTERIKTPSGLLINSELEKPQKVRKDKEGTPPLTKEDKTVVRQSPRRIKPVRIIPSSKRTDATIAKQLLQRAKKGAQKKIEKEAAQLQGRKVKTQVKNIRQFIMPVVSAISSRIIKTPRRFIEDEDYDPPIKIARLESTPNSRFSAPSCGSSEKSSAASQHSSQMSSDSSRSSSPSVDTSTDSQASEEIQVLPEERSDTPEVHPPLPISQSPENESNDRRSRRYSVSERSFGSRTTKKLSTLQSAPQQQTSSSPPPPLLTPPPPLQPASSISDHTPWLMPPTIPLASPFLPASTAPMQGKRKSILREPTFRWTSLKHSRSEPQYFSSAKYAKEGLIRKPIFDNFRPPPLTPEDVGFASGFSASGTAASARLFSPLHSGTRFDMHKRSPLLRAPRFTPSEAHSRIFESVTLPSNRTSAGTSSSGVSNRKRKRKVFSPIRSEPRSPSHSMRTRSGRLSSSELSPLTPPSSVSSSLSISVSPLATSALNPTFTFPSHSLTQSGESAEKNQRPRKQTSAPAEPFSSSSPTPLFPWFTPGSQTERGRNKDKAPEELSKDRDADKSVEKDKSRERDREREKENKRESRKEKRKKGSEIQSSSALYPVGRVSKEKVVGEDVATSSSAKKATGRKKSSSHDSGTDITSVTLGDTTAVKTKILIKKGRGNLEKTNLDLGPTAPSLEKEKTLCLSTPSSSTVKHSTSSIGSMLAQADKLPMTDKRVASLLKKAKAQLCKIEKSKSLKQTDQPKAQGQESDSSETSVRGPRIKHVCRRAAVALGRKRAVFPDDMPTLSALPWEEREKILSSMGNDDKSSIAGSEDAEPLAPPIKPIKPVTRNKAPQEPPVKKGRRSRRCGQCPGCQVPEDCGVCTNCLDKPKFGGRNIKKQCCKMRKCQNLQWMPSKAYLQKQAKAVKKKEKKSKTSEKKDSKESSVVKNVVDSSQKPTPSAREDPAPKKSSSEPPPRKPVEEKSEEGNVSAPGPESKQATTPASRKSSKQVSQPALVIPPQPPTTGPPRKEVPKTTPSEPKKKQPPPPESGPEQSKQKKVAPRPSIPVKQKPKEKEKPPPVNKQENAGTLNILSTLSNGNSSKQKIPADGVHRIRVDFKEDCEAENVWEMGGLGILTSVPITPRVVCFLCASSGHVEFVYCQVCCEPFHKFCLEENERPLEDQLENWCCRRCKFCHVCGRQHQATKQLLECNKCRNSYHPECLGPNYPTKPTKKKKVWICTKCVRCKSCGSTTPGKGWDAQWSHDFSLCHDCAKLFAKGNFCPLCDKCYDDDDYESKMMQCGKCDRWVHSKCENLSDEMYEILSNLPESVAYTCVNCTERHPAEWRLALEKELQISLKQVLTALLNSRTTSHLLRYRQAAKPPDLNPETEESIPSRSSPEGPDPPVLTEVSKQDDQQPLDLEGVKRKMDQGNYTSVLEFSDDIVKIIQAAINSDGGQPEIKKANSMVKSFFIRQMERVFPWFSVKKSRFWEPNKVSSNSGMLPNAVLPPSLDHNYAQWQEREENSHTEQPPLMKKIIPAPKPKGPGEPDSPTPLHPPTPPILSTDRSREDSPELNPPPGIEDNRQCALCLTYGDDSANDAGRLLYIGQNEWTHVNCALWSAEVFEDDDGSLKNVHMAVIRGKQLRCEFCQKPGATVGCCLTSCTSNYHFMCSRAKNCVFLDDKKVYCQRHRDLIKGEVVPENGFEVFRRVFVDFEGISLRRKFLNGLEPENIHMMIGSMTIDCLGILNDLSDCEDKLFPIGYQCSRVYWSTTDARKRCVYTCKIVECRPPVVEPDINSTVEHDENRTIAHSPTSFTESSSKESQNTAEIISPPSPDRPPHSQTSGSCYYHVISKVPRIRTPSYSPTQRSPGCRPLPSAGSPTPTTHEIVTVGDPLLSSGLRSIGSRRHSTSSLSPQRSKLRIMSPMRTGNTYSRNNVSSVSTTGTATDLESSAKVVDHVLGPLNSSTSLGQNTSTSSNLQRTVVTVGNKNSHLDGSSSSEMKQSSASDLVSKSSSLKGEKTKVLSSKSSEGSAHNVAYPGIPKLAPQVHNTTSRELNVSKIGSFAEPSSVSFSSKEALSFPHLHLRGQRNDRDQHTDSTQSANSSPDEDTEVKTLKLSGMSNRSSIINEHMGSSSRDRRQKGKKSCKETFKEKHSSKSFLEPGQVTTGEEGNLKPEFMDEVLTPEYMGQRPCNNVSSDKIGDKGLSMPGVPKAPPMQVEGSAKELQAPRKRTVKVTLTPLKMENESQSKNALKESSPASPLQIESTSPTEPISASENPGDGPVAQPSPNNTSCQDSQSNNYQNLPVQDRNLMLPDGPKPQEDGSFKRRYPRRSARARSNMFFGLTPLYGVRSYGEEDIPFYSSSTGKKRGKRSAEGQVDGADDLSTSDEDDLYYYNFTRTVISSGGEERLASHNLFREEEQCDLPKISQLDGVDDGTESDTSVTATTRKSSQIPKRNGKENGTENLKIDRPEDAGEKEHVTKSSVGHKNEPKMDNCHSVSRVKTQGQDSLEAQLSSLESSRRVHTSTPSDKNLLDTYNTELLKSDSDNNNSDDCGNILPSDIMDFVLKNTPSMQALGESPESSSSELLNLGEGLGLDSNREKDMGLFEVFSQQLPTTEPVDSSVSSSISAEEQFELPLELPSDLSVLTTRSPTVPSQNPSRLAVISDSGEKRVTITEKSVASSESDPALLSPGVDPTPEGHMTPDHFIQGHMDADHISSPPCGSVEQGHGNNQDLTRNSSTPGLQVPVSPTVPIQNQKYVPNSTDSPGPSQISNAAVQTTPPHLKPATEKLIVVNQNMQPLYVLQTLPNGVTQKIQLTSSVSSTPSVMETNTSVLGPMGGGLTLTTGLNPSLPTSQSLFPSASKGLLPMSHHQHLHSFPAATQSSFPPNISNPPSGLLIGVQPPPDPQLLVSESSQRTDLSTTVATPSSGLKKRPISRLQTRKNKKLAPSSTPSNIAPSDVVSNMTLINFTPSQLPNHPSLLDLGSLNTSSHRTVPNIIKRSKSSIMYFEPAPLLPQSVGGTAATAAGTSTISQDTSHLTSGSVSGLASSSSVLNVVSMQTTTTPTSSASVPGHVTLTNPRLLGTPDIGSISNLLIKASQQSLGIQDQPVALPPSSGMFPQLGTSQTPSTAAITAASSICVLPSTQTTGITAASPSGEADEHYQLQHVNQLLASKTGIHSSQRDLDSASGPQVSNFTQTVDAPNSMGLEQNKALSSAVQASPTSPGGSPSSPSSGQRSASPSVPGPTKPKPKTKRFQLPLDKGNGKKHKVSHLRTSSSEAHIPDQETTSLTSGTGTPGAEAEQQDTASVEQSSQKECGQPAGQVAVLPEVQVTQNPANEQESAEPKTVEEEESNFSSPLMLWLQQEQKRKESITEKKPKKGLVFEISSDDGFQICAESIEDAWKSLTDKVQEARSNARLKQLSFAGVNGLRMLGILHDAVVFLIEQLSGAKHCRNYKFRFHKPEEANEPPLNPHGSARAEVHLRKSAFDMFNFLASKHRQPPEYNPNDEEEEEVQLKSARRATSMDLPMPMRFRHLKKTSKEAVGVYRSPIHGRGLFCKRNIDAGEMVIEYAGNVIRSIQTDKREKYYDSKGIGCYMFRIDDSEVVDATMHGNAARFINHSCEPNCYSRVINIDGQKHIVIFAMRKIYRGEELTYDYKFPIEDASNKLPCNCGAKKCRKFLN
Description: as §1

PB1(5) = biological target: T10, PB1(5) (Homo sapiens, UniProt Q86U86); assay: biochemical; design: thermal shift assay (real-time PCR machine), melting temperature shift of recombinant bromodomains at 2 uM protein
T10 construct: gene PBRM1; bromodomain 5
Description: as §1

TAF1(1) = biological target: T11, TAF1(1) (Homo sapiens, UniProt P21675); assay: biochemical; design: thermal shift assay (real-time PCR machine), melting temperature shift of recombinant bromodomains at 2 uM protein
T11 construct: bromodomain 1
Description: as §1

TIF1-bromo = biological target: T12, TIF1-bromo (Homo sapiens, UniProt O15164); assay: biochemical; design: thermal shift assay (real-time PCR machine), melting temperature shift of recombinant bromodomains at 2 uM protein
T12 construct: gene TRIM24; bromodomain
T12 sequence (O15164 whole entry): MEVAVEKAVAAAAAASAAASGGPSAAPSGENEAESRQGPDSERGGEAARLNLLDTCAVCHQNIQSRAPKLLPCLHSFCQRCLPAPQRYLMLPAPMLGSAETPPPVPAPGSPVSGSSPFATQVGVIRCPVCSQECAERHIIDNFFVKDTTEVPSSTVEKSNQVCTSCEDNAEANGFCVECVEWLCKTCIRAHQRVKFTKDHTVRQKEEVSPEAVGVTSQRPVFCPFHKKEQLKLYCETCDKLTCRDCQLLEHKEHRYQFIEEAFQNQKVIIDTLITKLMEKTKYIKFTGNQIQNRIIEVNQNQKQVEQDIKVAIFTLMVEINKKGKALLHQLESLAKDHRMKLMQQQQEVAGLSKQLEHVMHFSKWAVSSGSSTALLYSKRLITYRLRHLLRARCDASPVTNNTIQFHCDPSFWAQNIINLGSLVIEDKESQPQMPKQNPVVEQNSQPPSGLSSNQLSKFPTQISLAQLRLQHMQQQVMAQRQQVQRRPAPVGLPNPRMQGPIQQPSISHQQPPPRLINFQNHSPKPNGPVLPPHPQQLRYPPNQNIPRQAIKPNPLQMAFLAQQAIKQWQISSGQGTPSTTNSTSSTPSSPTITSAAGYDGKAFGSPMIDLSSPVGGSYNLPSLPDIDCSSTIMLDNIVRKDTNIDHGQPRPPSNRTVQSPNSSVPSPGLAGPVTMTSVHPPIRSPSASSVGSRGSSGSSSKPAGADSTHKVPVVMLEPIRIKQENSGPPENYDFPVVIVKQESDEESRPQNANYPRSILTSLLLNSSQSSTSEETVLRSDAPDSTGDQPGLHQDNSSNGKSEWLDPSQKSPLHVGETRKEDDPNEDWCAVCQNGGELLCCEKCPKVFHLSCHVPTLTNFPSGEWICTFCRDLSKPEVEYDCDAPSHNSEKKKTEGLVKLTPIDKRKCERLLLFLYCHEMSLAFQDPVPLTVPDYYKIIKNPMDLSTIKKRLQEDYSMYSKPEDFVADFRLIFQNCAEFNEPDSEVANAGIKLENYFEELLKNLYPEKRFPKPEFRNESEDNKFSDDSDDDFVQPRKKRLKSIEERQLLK
Description: as §1

TIF1-phd-bromo = biological target: T13, TIF1-phd-bromo (Homo sapiens, UniProt O15164); assay: biochemical; design: thermal shift assay (real-time PCR machine), melting temperature shift of recombinant bromodomains at 2 uM protein
T13 construct: gene TRIM24; PHD-bromodomain
T13 sequence (O15164 whole entry): as above
Description: as §1

WDR9(2) = biological target: T14, WDR9(2) (Homo sapiens, UniProt Q9NSI6); assay: biochemical; design: thermal shift assay (real-time PCR machine), melting temperature shift of recombinant bromodomains at 2 uM protein
T14 construct: gene BRWD1; bromodomain 2
Description: as §1

[2] = biological target: T1, BRD4(1), first bromodomain of BRD4; assay: biochemical; design: thermal shift assay, SAR of isoxazole compounds against BRD4(1); details: read-out: ΔTm Shift (oC)
Description: The recombinant bromodomains at 2 μM were mixed with 10 μM inhibitors. The assays and data evaluation for melting temperatures were performed using a Real-Time PCR Mx3005p machine (Stratagene) and the protocols previously described. Experiments profiling the final compound (PNZ5) were performed in quadruplicates. Isoxazoles have been explored previously as BET bromodomain inhibitors. We have developed PNZ5, a new isoxazole-based inhibitor originating from the lead compound S1 (Figure 1). PNZ5 was developed as the result of a structure-based lead optimisation program. Dihydroindene S1 was identified as a ligand against BRD4(1) (pIC50 5.9). Investigation of the co-crystal structure of S1 with BRD4(1) [PDB ID 4GPJ] identified a number of positions for potential optimisation: addition of a carbonyl group at C-3 was envisaged to benefit from hydrogen-bonds (H-bonds) to a network of conserved water molecules; replacement of C-2 with a nitrogen would minimise interactions in the narrow ZA channel of BRD4(1) and N-substitution could provide further binding interactions with the protein; and alternative substitution of the hydroxyl at C-1 would provide a handle for further optimisation. […] The three best compounds, S3, S5 and S7, were destined to be separated into their component enantiomers for further evaluation (Supplementary Table 2). […]

Cc1noc(C)c1-c1ccc2c(c1)[C@H](c1ccccc1)N(C)C2=O [PNZ5]
Kd [1]: 5.43 nM
ΔTm at 10 µM (BAZ2A): 0.32 °C
ΔTm at 10 µM (BRD2(1)): 7.94 °C
ΔTm at 10 µM (BRD3(1)): 9.79 °C
ΔTm at 10 µM (BRD3(2)): 9.54 °C
ΔTm at 10 µM (BRD4(2)): 7.04 °C
ΔTm at 10 µM (BRPF1B): 0.89 °C
ΔTm at 10 µM (FALZ): 0.22 °C
ΔTm at 10 µM (MLL): 0.49 °C
ΔTm at 10 µM (PB1(5)): 0.28 °C
ΔTm at 10 µM (TAF1(1)): 0.09 °C
ΔTm at 10 µM (TIF1-bromo): 0.86 °C
ΔTm at 10 µM (TIF1-phd-bromo): 0.06 °C
ΔTm at 10 µM (WDR9(2)): 0.38 °C
ΔTm at 10 µM [2]: 11.4 °C
